Experimental data from article PMC6193938, “Characterization of a novel AICARFT inhibitor which potently elevates ZMP and has anti-tumor activity in murine models” (Scientific Reports, 2018).

Legend:
TRKA = biological target: T1, TRKA (Homo sapiens, UniProt P04629); assay: CEREP protein kinase assay; assay type: biochemical
T1 construct: purchased CEREP Panlabs (Eurofins)

MLK1 = biological target: T2, MLK1 (Homo sapiens, UniProt P80192); assay: CEREP protein kinase assay; assay type: biochemical
T2 construct: purchased CEREP Panlabs (Eurofins)

A9 tumor = assay: Antitumor efficacy and tumor metabolites, A9 tumor model; assay type: in vivo, mouse; settings: A9 tumors
NCI-H460 xenograft = assay: Antitumor efficacy and tumor metabolites, mouse xenograft, normal folate diet; assay type: in vivo; settings: NCI-H460 tumors; after 13 days of treatment; normal chow
MDA-MB-231met2 cells = assay: MS detection of ZMP in cultured cells; assay type: cell-based, human; settings: regular RPMI, calculated with 4 pL cell volume
Protocol: To mimic human plasma levels, low folate media is traditionally used in which the folate comes only from the defined fetal bovine serum. […] Because LSN3213128 would be dosed in mice on normal diet, cell line screening was performed under standard tissue culture conditions to identify cell lines sensitive to treatment under high folate conditions. In order to compare tissue culture values with tumor levels, an average 4 pL cell volume[36] was used to calculate cellular ZMP concentrations. In MDA-MB-231[…] cells using regular RPMI, the peak intracellular ZMP levels are about 770 μM while in the salvage deficient A9 cells ZMP is 6,500 μM. […] It is not surprising that in vivo in mice on standard chow where folate plasma levels are >10-fold lower than tissue culture that tumor ZMP levels are also lower. […] ZMP was detected in cultured cells via mass spec analysis. Cells were plated in 96-well plates at 25,000 cells per well in 100 μL with either high or low folate RPMI media and incubated overnight at 37 °C with 5% CO2. […] […] dUMP were detected using positive ion TurboIonSpray® multiple reaction monitoring mode and the data were processed with AB Sciex MultiQuantTM. Back-calculated ZMP concentrations were fit to a four-parameter logistic equation using ACTIVITYBASE 4.0 to determine EC50 values relative to the maximum observed metabolite levels.

TAK1 = biological target: T3, TAK1 (Homo sapiens, UniProt O43318); assay: CEREP protein kinase assay; assay type: biochemical
T3 construct: purchased CEREP Panlabs (Eurofins)
T3 sequence (O43318 1-303 limits assumed): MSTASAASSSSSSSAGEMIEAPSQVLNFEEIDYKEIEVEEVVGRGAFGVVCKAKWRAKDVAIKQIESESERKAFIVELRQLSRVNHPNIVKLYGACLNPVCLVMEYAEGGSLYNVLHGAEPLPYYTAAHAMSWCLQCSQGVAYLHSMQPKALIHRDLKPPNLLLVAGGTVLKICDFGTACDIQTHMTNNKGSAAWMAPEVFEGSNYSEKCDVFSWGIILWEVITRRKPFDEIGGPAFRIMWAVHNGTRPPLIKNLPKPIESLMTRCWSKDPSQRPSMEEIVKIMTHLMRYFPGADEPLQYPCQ
T3 sequence (Q15750 437-504 partner limits assumed): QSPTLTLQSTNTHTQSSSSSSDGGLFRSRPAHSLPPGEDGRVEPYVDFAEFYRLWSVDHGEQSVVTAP

PDGFRa = biological target: T4, PDGFRa (Homo sapiens, UniProt P16234); assay: CEREP protein kinase assay; assay type: biochemical
T4 construct: purchased CEREP Panlabs (Eurofins)

CDK7 = biological target: T5, CDK7 (Homo sapiens, UniProt P50613); assay: CEREP protein kinase assay; assay type: biochemical
T5 construct: purchased CEREP Panlabs (Eurofins)

TYK2 = biological target: T6, TYK2 (Homo sapiens, UniProt P29597); assay: CEREP protein kinase assay; assay type: biochemical
T6 construct: purchased CEREP Panlabs (Eurofins)

JAK1 = biological target: T7, JAK1 (Homo sapiens, UniProt P23458); assay: CEREP protein kinase assay; assay type: biochemical
T7 construct: purchased CEREP Panlabs (Eurofins)

FGR = biological target: T8, FGR (Homo sapiens, UniProt P09769); assay: CEREP protein kinase assay; assay type: biochemical
T8 construct: purchased CEREP Panlabs (Eurofins)

RSK3 = biological target: T9, RSK3 (Homo sapiens, UniProt Q15349); assay: CEREP protein kinase assay; assay type: biochemical
T9 construct: purchased CEREP Panlabs (Eurofins)
T9 sequence (Q15349 whole entry): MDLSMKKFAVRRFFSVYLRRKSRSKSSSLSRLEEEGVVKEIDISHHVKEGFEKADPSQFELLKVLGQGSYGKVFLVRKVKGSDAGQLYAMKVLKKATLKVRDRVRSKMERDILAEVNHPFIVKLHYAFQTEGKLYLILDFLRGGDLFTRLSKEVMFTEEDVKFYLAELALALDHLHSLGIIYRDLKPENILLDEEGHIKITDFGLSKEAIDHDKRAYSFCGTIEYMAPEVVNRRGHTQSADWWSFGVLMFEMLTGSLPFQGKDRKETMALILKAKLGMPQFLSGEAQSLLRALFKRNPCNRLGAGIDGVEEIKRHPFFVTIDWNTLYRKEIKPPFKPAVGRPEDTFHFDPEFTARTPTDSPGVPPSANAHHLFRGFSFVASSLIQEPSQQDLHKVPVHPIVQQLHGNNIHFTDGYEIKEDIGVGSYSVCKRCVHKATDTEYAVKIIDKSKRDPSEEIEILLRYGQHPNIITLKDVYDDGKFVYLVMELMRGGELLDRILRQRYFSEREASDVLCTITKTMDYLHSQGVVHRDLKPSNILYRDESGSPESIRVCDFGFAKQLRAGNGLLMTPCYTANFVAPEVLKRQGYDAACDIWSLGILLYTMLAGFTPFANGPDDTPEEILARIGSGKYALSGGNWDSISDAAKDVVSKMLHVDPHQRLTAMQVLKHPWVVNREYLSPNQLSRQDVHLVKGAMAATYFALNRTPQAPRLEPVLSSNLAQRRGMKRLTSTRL

T8 sequence (P09769 whole entry): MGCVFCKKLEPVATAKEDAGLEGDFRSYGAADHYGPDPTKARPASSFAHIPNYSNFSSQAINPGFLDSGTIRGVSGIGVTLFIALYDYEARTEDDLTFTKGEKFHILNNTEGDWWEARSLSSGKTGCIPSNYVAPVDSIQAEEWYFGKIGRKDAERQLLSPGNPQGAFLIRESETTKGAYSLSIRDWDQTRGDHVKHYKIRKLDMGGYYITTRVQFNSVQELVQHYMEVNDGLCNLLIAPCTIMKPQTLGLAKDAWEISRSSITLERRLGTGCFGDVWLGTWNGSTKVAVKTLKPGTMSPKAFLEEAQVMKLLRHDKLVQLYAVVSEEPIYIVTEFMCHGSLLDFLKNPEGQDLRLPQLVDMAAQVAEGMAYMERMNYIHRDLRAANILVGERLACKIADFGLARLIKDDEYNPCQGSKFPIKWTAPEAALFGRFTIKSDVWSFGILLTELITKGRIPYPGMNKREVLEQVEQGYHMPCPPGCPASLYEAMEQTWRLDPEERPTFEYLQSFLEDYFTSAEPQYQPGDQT
T4 sequence (P16234 24-1089): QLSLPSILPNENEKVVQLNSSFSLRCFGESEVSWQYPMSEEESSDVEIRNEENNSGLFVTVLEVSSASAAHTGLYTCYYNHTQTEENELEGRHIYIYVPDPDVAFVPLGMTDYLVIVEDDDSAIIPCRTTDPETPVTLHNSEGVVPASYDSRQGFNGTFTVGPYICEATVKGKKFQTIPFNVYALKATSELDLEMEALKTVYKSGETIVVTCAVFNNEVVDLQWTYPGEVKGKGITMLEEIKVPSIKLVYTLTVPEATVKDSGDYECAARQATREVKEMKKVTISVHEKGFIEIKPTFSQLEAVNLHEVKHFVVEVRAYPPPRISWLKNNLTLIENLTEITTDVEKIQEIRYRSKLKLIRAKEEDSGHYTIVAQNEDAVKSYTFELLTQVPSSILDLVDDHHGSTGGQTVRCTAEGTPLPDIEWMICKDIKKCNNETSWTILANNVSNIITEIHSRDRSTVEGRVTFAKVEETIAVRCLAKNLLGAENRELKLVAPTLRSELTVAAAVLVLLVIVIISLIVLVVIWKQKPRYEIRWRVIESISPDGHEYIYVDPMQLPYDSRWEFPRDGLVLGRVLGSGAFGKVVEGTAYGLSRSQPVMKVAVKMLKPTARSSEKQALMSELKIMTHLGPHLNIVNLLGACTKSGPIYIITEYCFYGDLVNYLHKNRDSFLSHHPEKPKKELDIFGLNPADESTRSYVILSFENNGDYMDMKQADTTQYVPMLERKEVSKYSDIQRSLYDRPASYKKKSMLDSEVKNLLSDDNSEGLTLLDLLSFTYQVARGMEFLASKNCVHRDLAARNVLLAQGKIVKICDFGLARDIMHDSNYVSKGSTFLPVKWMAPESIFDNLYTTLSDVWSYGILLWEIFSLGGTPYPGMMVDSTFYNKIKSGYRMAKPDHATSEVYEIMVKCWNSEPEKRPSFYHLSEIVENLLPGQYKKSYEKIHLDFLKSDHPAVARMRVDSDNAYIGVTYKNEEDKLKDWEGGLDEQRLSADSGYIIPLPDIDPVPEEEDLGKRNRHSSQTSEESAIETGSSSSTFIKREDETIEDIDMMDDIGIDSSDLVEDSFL
T7 sequence (P23458 whole entry): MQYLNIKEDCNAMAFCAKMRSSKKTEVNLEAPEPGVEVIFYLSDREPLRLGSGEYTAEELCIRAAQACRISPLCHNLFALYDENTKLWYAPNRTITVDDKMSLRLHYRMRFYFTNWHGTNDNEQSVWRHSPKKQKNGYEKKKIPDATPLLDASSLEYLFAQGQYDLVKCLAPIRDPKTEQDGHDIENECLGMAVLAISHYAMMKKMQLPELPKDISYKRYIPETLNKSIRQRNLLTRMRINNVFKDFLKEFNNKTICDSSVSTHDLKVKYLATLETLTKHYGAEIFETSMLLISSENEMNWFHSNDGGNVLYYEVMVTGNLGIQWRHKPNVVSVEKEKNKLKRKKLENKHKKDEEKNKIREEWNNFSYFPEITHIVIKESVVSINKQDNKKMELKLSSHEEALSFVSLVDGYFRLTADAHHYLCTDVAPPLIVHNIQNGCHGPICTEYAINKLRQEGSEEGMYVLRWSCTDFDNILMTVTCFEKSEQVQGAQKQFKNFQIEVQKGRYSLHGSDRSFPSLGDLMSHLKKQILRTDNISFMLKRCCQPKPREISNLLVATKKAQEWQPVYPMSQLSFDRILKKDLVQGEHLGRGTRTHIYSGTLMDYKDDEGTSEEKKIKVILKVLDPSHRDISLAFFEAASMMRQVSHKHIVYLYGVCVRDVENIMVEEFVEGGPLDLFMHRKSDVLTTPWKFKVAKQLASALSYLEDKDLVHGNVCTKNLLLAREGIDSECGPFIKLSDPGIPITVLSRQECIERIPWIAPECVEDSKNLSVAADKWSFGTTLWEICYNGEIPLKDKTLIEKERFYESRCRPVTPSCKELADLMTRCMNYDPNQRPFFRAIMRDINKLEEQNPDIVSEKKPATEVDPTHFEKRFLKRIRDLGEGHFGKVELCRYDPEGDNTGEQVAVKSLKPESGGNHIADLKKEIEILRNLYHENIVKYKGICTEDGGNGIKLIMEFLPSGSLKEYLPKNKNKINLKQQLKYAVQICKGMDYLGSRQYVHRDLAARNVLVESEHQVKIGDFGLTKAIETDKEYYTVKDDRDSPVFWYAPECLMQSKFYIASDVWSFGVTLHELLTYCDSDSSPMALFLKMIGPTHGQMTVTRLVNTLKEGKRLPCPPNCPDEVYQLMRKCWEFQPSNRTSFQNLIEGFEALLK
T1 sequence (P04629 33-796): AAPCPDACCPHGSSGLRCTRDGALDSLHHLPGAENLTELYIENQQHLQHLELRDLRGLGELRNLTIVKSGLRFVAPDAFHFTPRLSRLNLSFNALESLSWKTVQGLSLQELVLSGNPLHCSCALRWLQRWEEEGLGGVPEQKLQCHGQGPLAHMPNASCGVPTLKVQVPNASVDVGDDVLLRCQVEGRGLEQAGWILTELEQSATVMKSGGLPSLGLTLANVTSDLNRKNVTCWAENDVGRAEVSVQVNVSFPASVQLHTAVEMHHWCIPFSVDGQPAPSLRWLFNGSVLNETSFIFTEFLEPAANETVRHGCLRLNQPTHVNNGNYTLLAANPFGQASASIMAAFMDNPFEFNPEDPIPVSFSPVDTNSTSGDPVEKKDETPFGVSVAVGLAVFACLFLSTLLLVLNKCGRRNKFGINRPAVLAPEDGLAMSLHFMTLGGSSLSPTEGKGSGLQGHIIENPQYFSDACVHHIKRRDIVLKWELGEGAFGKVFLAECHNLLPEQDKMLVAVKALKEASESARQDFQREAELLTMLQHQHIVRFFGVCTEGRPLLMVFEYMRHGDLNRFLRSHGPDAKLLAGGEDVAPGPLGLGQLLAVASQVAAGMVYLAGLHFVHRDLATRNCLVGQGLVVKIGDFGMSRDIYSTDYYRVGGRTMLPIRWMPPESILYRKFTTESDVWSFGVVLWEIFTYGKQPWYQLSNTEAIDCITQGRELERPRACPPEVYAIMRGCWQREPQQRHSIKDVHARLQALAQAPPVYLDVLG

## O=c1[nH]ccc2cc(F)c(NS(=O)(=O)c3ccc(N4CC[C@@H](O)C4)s3)cc12 [LSN3213128, N-(6-Fluoro-1-oxo-1,2-dihydroisoquinolin-7-yl)-5-[(3R)-3-hydroxypyrrolidin-1-yl]thiophene-2-sulfonamide]
TRKA; @ 0.2 uM
  inhibition at 0.2 µM: -1.15%
TRKA; @ 2 uM
  inhibition at 2 µM: 8.27%
TRKA; @ 20 uM
  inhibition at 20 µM: 10.1%
MLK1; @ 0.2 uM
  inhibition at 0.2 µM: -7.95%
MLK1; @ 2 uM
  inhibition at 2 µM: 2.73%
MLK1; @ 20 uM
  inhibition at 20 µM: 3.99%
A9 tumor; 100 mg/kg QDx12 dose group
  tumor dUMP: 0.72 ± 0.41 µM
A9 tumor; after 12 days of dosing, 100 mg/kg
  tumor ZMP levels: dramatically elevated
NCI-H460 xenograft
  tumor ZMP levels: dramatically elevated
  tumor dUMP levels: remained constant
MDA-MB-231met2 cells
  peak intracellular ZMP levels: about 770 μM
TAK1; @ 0.2 uM
  inhibition at 0.2 µM: -0.355%
TAK1; @ 2 uM
  inhibition at 2 µM: 4.6%
TAK1; @ 20 uM
  inhibition at 20 µM: 19.3%
PDGFRa; @ 0.2 uM
  inhibition at 0.2 µM: -10.5%
PDGFRa; @ 2 uM
  inhibition at 2 µM: 12.3%
PDGFRa; @ 20 uM
  inhibition at 20 µM: 44.9%
CDK7; @ 0.2 uM
  inhibition at 0.2 µM: -17%
CDK7; @ 2 uM
  inhibition at 2 µM: 2.91%
CDK7; @ 20 uM
  inhibition at 20 µM: 15%
TYK2; @ 0.2 uM
  inhibition at 0.2 µM: -6.85%
TYK2; @ 2 uM
  inhibition at 2 µM: -1.32%
TYK2; @ 20 uM
  inhibition at 20 µM: 35.1%
JAK1; @ 0.2 uM
  inhibition at 0.2 µM: -1.48%
JAK1; @ 2 uM
  inhibition at 2 µM: 5.53%
JAK1; @ 20 uM
  inhibition at 20 µM: 46.6%
FGR; @ 0.2 uM
  inhibition at 0.2 µM: -8.47%
FGR; @ 2 uM
  inhibition at 2 µM: 3.62%
FGR; @ 20 uM
  inhibition at 20 µM: 42.3%
RSK3; @ 0.2 uM
  inhibition at 0.2 µM: -5.85%
RSK3; @ 2 uM
  inhibition at 2 µM: -1.32%
RSK3; @ 20 uM
  inhibition at 20 µM: 9.07%
